Patent US11535597B2, “Photoreactive ligands and uses thereof” (The Scripps Research Institute, priority 2017, dated 2022)

Experiments:
[1] = target: T1, cathepsin B (CTSB) (Homo sapiens, UniProt P07858); test: Mapping and competition of FFF probe-modified peptide on cathepsin B (CTSB); assay type: binding; details: active-site proximal peptide
T1 construct: endogenous in cells; host or cells: HEK293T
Protocol: (§1) Preparation and analysis was adapted from methods previously reported. In brief, for global mapping of fragment probe-modified peptides, separate 10 cm dishes of cells were treated with probes (200-250 μM) in 3.0 mL of DMEM (serum-free) and (if applicable) competitor ligands, proteomes harvested and subjected to click chemistry conditions with either light or heavy isotopically labeled biotin-TEV-azide (10 μL of 5 mM stocks in DMSO, final concentration=100 μM), TCEP, ligand and CuSO4 as detailed above. The samples were allowed to react for 1 h at which point the samples were centrifuged (16,000 g, 5 min, 4° C.). The resulting pellets were sonicated in ice-cold methanol (500 μL) and the resuspended light- and heavy-labeled samples were then combined and centrifuged (16,000 g, 5 min, 4° C.). The pellets were then solubilized in PBS containing 1.2% SDS (1 mL) with sonication and heating (5 min, 95° C.). Samples were transferred to falcon tubes containing DPBS (5 mL), to which a 100 μL of streptavidin-agarose beads slurry was added. […]
(§2) The resulting probe-modified peptides were collected for MS analysis, which was performed as described above with differences in the salt bumps applied in the chromatographic gradients which in this case were 0%, 30%, 60%, 90% and 100% NH4OAc (500 μM). […] The isoTOP ratios for probe labeled peptides were quantified using the in-house software CIMAGE. […]

[2] = target: T2, BAX (Homo sapiens, UniProt Q07812); test: Mapping of FFF probe-modified peptide on BAX; assay type: binding; details: for Labeled Peptide: residues of probe-labeled peptide
T2 construct: endogenous in cells; host or cells: human cells (HEK293T; a subset of probes also in K562)
T2 sequence (Q07812 whole entry): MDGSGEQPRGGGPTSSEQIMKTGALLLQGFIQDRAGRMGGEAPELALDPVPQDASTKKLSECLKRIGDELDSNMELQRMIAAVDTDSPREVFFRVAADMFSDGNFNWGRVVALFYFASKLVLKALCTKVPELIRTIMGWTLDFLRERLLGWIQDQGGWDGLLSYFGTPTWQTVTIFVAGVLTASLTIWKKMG
Protocol: as §1, with “added. After incubation, the beads (3 hr) were pelleted by centrifugation (1,400 g, 3 min) and were washed (2×10 mL PBS and 2×10 mL water). The beads were transferred to eppendorf tubes with 1 mL DPBS, centrifuged (1,400 g, 3 min), and resuspended in PBS containing 6 M urea. To this was added 10 mM DTT (25 μL of a 200 mM stock in water) and the beads were incubated at 65° C. for 15 mins. 20 mM iodoacetamide (25 μL of a 400 mM stock in water) was then added and allowed to react at 37° C. for 30 mins with shaking. The bead mixture was diluted with 900 μL PBS, pelleted by centrifugation (1,400 g, 3 min), and resuspended in 200 μL 2M urea (DPBS) containing trypsin and CaCl2 as described above.” for “added.”
as §2

Structure (SMILES)	probe-modified peptide in CTSB [1]	probe-modified peptide in BAX ([2]; groove that binds BH3-domain activators Bim and Bid)	Labeled Peptide ([2]; protein BAX (Q07812))	Labeled Peptide ([2]; protein BAX Apoptosis regulator BAX)
C#CCCC1(CCC(=O)Nc2ccc(C3CCNCC3)cc2)N=N1 [probe 9, 3-(3-(But-3-yn-1-yl)-3H-diazirin-3-yl)-N-(4-(piperidin-4-yl)phenyl)propanamide]	aa 315-332			
C#CCCC1(CCC(=O)N2CCCCC2Cc2ccccc2)N=N1 (stereo not shown) [probe 13, 1-(2-Benzylpiperidin-1-yl)-3-(3-(but-3-yn-1-yl)-3H-diazirin-3-yl)propan-1-one]		aa 66-79	66-78	66-78
